Experiment [1] deals with T1, native aldolase from rabbit muscle (RM) (Oryctolagus cuniculus, UniProt P00883).
T1 construct: made in house
T1 sequence (P00883 1-364): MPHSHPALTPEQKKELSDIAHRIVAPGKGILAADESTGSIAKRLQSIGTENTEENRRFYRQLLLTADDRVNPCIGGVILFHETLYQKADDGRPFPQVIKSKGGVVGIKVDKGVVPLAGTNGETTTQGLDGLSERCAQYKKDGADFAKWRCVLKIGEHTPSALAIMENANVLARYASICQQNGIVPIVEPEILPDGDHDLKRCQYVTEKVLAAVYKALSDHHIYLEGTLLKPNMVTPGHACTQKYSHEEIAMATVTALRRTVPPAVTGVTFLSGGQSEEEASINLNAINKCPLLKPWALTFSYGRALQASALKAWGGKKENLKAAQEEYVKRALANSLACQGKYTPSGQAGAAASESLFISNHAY
The experiment is described as follows: Aldolase activity by coupled enzyme test (TIM/GDH), inactivation and reactivation kinetics. The experiment is classed as biochemical. The following applies: for Specific activity: RM 0.2 mg/mL. Here is the method: Aldolase activity was measured using a coupled enzyme test system: the triose-phosphate isomerase and glycerol-3-phosphate deshydrogenase (TIM/GDH) system, following oxidation of the NADH (Boehringer-Mannheim, France) at 340 nm, by means of a SAFAS spectrophotometer preheated to 25° C. Testing began with the addition of the substrate (Fru(1.6)P2; […] in final concentration), to complete an aldolase solution created in a triethanolamine buffer (TEA buffer) (100 Mm TEA/HCl; 50 mM NaCl; 1 mM EDTA, pH 7.6; ionic strength 0.15), 0.42 mM of NADH, and containing both enzyme systems (10 μg/mL of GDH and 1 μg/mL of TIM) for a final volume of 1 mL. The construction, overexpression and purification of recombinant aldolase were carried out in accordance with Morris A. J. et al., 1993 (J. Biol. Chem., 265:1095-1100) and Berthiaume L. et al., 1993 (J. Biol. Chem., 268:10826-10835).
The substrate cleavage rate was determined by measuring the decrease in absorbance/minute at 340 nm. The aldolase was dialyzed overnight at 4° C. against a TEA buffer prior to use. The protein concentration was determined by spectrophotometry, using ε280=0.91 mL.mg^−1.cm^−1 as an extinction coefficient. Subunit concentration was determined on the basis of a molecular weight of 159,000 for an aldolase tetramer. • Kinetic Method:
In the extreme situation where k−2 approaches zero, a reversible slow-binding inhibitor may resemble an irreversible one directed toward the active site. In this situation, the equation eqn.(3) is used for this type of inhibition (Meloche H. P., 1967, Biochemistry, 6:2273-2280). The semi-inactivation time of the enzyme (t1/2) is defined as a function of the mutual inhibitor concentration and is graphically represented by a straight line crossing the Y-axis at […] and crossing the X-axis at −1/Ki. • Experimental Protocol:
Native aldolase (5 μM of subunits) is incubated in the presence of FHN-P (0.05-1 mM) in TEA buffer. Enzyme activity is analyzed as a function of time using 10 μl aliquot portions.
Inactivation kinetics follow pseudo-first-order kinetics, and kinetic parameters Ki and k2 are determined by using the equation eqn.(3). To determine the reactivation rate, aldolase (25 μM of subunits in the TEA buffer) is incubated with 500 μM of FHN-P until reaching 90% inactivation. Excess inhibitor is removed by ultrafiltration with a PM-30 Millipore membrane. The enzyme-inhibitor complex is incubated in the TEA buffer (15 μM of subunits at final concentration) containing hexitol-P2 (10 mM). Aliquot portions (10 μl) are removed at different times to measure aldolase activity.
Controls involve repeating the protocol without FHN-P. The reactivation process is analyzed as if it were a first-order reaction. • Monitored by UV-Visible Differential Spectroscopy.

The target in the next experiment is T2, K229M mutant RM aldolase (Oryctolagus cuniculus, UniProt P00883, K230M).
T2 construct: made in house
T2 sequence (P00883 1-364 K230M): T1 sequence (P00883 1-364) with K230M
The experiment is described as follows: UV-visible differential spectroscopy (method A) with mutated aldolase K229M. It is filed as binding, rabbit. The following applies: FHN-P 300 μM; for kapp: 431 nm. The procedure:
For method A, absorption spectra are recorded as a function of time, between 250 and 500 nm, or at wavelengths corresponding to maximum or minimum absorption. Measurements are begun by adding FHN-P at varying final concentrations (0.1-1 mM) in the TEA buffer containing a fixed concentration of aldolase (10 μM of subunits). Measured absorption spectra for the enzyme complex are corrected using the absorbance of the buffer, the FHN—P, and the enzyme (measured separately). The differential absorption spectra thus obtained are used to calculate the value of the constants that define the formation of the aldolase-inhibitor complex.
Every UV-visible differential test spectroscopy test using mutated aldolases (10 μM of subunits) is carried out using method A. • Monitored by Electrospray Ionization Mass Spectrometry (ESI-MS).
Residues of lysine 106, 146 and 229 residues are located at the active aldolase sites and thus are candidates for causing inactivation by forming a Schiff base with the FHN-P. In order to identify which lysine is responsible for the differential absorbances in the presence of FHN-P, sporadic mutations of these lysine residues were created and named: K107M (Research Collaboratory for Structural Bioinformatics Protein Databank), K146M (Blonski C. et al., 1997, Biochem. J. 323:71-77) and […] (Research Collaboratory for Structural Bioinformatics Protein Databank). […] UV-visible differential spectroscopy (method A) was used to examine formation of the enzyme complex for each sporadic mutation in the presence of a fixed concentration of FHN-P (300 μM).

Data on one compound can be found in patent US7470821B2, “Aldolase-inhibiting aromatic compounds” (Valorisation-Recherche, Limited Partnership, priority 2003, dated 2008).

Changes are numbered by the printed parent chain. Read-outs that look alike come from different tables or passages of the source.

As to `O=Cc1c(O)ccc2cc(OP(=O)(O)O)ccc12` [FHN-P, 5-formyl-6-hydroxy-2-naphthylphosphate], the Specific activity in experiment [1] (FHN-P 250 μM with Fru(1,6)P2 (1 mM), 80 min incubation) was found to be 5.2 ± 0.4 Unit/mg; in experiment [1] (FHN-P 250 μM with hexitol-P2, 80 min incubation), 9.9 ± 0.5 Unit/mg; in experiment [1] (compound 250 μM, TEA buffer pH 7.6, 80 min incubation, RM alone 12.5 ± 0.5) it was 2.8 ± 0.3 Unit/mg. The Ki in experiment [1] (dissociation constant of rapidly formed EI complex, from kapp at 0.01-1.5 mM inhibitor, eqn.(3), read-out: Ki) is 250 ± 100 µM; in experiment [1] (estimated from the values of Table 2, read-out: global dissociation constant Ki*), 0.04 ± 0.02 µM. The k2 in experiment [1] (inactivation constant, enzyme activity kinetics) was found to be 0.07 ± 0.01 min⁻¹. Moreover, the Residual specific activity result on K229M mutant RM aldolase was “ud”. Further, the entries for the “ΔA relative to 432 nm” value at K229M mutant RM aldolase (first (rapid) phase) and on K229M mutant RM aldolase (second (slow) phase) were 95% and 25%, respectively. Moreover, the kapp on K229M mutant RM aldolase (first (rapid) phase) turned out to be 0.040 ± 0.0025 min⁻¹; at K229M mutant RM aldolase (second (slow) phase), 0.0015 ± 0.0003 min⁻¹.
